From patent US20220002272A1, “BISARYL LACTAMS AS NRF2 ACTIVATORS” (GLAXOSMITHKLINE INTELLECTUAL PROPERTY DEVELOPMENT LIMITED, priority 2016, published 2022) come the findings set out here.

Counter-ions that a name gives are not always drawn. Bounds are passed on as bounds.

The test system of the experiment is NQ01 specific enzyme activity in BEAS-2B cells (marker for Nrf2 activation). Description: BEAS-2B NQ01 MTT Assay. Type of experiment: cell-based. The settings on record: Homo sapiens; NQ01 specific activity induction in BEAS-2B cells, 48 hours incubation with compound. The text has this:
NAD(P)H:quinone oxidoreductase 1 (NQ01), also called DT diaphorase, is a homodimeric FAD-containing enzyme that catalyzes obligatory NAD(P)H-dependent two-electron reductions of quinones and protects cells against the toxic and neoplastic effects of free radicals and reactive oxygen species arising from one-electron reductions. The transcription of NQ01 is finely regulated by Nrf2, and thus NQ01 activity is a good marker for Nrf2 activation. On day one, frozen BEAS-2B cells (ATCC) are thawed in a water bath, counted, and re-suspended at a concentration of 250,000 cells/mL. Fifty microliters of cells are plated in 384 well black clear-bottomed plates. Plates are incubated at 37° C., 5% CO2 overnight. On day two, plates are centrifuged and 50 nL of compound or controls are added to the cells. Plates are then incubated at 37° C., 5% CO2 for 48 hours. On day four, medium is aspirated from the plate and crude cell lysates are made by adding 13 uL of 1× Cell Signaling Technologies lysis buffer with 1 Complete, Mini, EDTA-free Protease Inhibitor Tablet (Roche) for each 10 mL of lysis buffer. After lysis plates are incubated for 20 minutes at room temperature. Two microliters of lysate are removed for use in Cell Titer Glo assay (Promega) and MTT cocktail is prepared (Prochaska et. al. 1998) for measurement of NQ01 activity. Fifty microliters of MTT cocktail is added to each well, plate is centrifuged, and analyzed on an Envision plate reader (Perkin Elmer) using Absorbance 570 nm label for 30 minutes. Product formation is measured kinetically and the pEC50 of NQ01 specific activity induction is calculated by plotting the change in absorbance (Delta OD/min) versus the log of compound concentration followed by 3-parameter fitting.
pEC50 is the negative log of the EC50.
EC50s<1 nM (+++++), EC50s 10 nM-1 nM (++++), EC50s 10-100 nM (+++), EC50s 100 nM-1 μM (++), EC50s 1-10 μM (+).
The term EC50 denotes the midpoint of the concentration-response curve. With `Cc1c([C@H](c2ccc3c(c2)[C@H](N2CC(=O)N(C)CC(C)(C)C2)CC3)C(C)(C)C(=O)O)ccc2c1nnn2C` (relative stereo) [Example 10, rel-3S-(1,4-Dimethyl-1H-benzo[d][1,2,3]triazol-5-yl)-2,2-dimethyl-3-(rel-(R)-3-(4,6,6-trimethyl-3-oxo-1,4-diazepan-1-yl)-2,3-dihydro-1H-inden-5-yl)propanoic acid], the EC50 is under 0.001 µM.
As for `Cc1c([C@H](c2ccc3c(c2)[C@@H](N2CC(=O)N(C)CC(C)(C)C2)CC3)C(C)(C)C(=O)O)ccc2c1nnn2C` (relative stereo) [Example 11, rel-3S-(1,4-Dimethyl-1H-benzo[d][1,2,3]triazol-5-yl)-2,2-dimethyl-3-(rel-(S)-3-(4,6,6-trimethyl-3-oxo-1,4-diazepan-1-yl)-2,3-dihydro-1H-inden-5-yl)propanoic acid], the figure is 0.001 to 0.01 µM; as for `Cc1c(C(c2ccc3c(c2)C(N2CC(=O)N(C)CC(C)(C)C2)CC3)C(C)(C)C(=O)O)ccc2c1nnn2C` (single isomer, unassigned) [Example 12], 0.01 to 0.1 µM; as for `Cc1ccc([C@@H](c2ccc3c(nnn3C)c2C)C(C)(C)C(=O)O)cc1CN1CC(=O)N(C2CC2)CC(C)(C)C1` [Example 1], 0.001 to 0.01 µM.
The value for `CCCN1CC(C)(C)CN(Cc2cc([C@@H](c3ccc4c(nnn4C)c3C)C(C)(C)C(=O)O)ccc2C)CC1=O` [Example 2] was 0.001 to 0.01 µM; that for `Cc1ccc([C@@H](c2ccc3c(nnn3C)c2C)C(C)(C)C(=O)O)cc1CN1CCCN(C)C(=O)C1` [Example 3, (S)-3-(1,4-Dimethyl-1H-benzo[d][1,2,3]triazol-5-yl)-2,2-dimethyl-3-(4-methyl-3-((4-methyl-3-oxo-1,4-diazepan-1-yl)methyl)phenyl)propanoic acid] was 0.1 to 1 µM.
As for `CCN1CC(C)(C)CN(Cc2cc([C@@H](c3ccc4c(nnn4C)c3C)C(C)(C)C(=O)O)ccc2C)CC1=O` [Example 4], the figure is 0.001 to 0.01 µM; as for `CCC1CN(Cc2cc(C(c3ccc4c(nnn4C)c3C)C(C)(C)C(=O)O)ccc2C)CC(=O)N(C)C1` (stereo not shown) [Example 5, 3-(1,4-Dimethyl-1H-benzo[d][1,2,3]triazol-5-yl)-3-(3-((6-ethyl-4-methyl-3-oxo-1,4-diazepan-1-yl)methyl)-4-methylphenyl)-2,2-dimethylpropanoic acid], 0.001 to 0.01 µM; as for `Cc1ccc([C@@H](c2ccc3c(nnn3C)c2C)C(C)(C)C(=O)O)cc1CN1CC(=O)N(C)CC(C)(C)C1` [Example 6, (S)-3-(1,4-Dimethyl-1H-benzo[d][1,2,3]triazol-5-yl)-2,2-dimethyl-3-(4-methyl-3-((4,6,6-trimethyl-3-oxo-1,4-diazepan-1-yl)methyl)phenyl)propanoic acid, 0.3Formic acid salt], 0.001 to 0.01 µM.
For `Cc1ccc(C(c2ccc3c(nnn3C)c2C)C(C)(C)C(=O)O)cc1CN1CC(=O)N(C)CC(C)(C)C1` (stereo not shown) [Example 7, 3-(1,4-Dimethyl-1H-benzo[d][1,2,3]triazol-5-yl)-2,2-dimethyl-3-(4-methyl-3-((4,6,6-trimethyl-3-oxo-1,4-diazepan-1-yl)methyl)phenyl)propanoic acid], the EC50 was in the range of 0.001 to 0.01 µM.
As to `Cc1ccc(C(c2ccc3c(nnn3C)c2C)C(C)(C)C(=O)O)cc1CN1CC(=O)N(C2CCC2)CC(C)(C)C1` (stereo not shown) [Example 8, 3-(3-((4-Cyclobutyl-6,6-dimethyl-3-oxo-1,4-diazepan-1-yl)methyl)-4-methylphenyl)-3-(1,4-dimethyl-1H-benzo[d][1,2,3]triazol-5-yl)-2,2-dimethylpropanoic acid], the 50% effective concentration (EC50) lay in the range of 0.001 to 0.01 µM.
The value for `Cc1ccc(C(c2ccc3c(nnn3C)c2C)C(C)(C)C(=O)O)cc1CN1CC(=O)N(CC2CC2)CC(C)(C)C1` (stereo not shown) [Example 9, 3-(3-((4-(Cyclopropylmethyl)-6,6-dimethyl-3-oxo-1,4-diazepan-1-yl)methyl)-4-methylphenyl)-3-(1,4-dimethyl-1H-benzo[d][1,2,3]triazol-5-yl)-2,2-dimethylpropanoic acid] was 0.01 to 0.1 µM; that for `Cc1c(C(c2ccc3c(c2)C(N2CC(=O)N(C)CC(C)(C)C2)CC3)C(C)(C)C(=O)O)ccc2c1nnn2C` (stereo not shown) [Example 13, 3-(1,4-Dimethyl-1H-benzo[d][1,2,3]triazol-5-yl)-2,2-dimethyl-3-(3-(4,6,6-trimethyl-3-oxo-1,4-diazepan-1-yl)-2,3-dihydro-1H-inden-5-yl)propanoic acid] was 0.1 to 1 µM; that for `CCn1cc(COC(c2ccc(C)c(CN3CC(=O)N(C)CC(C)(C)C3)c2)C(C)(C)C(=O)O)nn1` (stereo not shown) [Example 14, 3-((1-Ethyl-1H-1,2,3-triazol-4-yl)methoxy)-2,2-dimethyl-3-(4-methyl-3-((4,6,6-trimethyl-3-oxo-1,4-diazepan-1-yl)methyl)phenyl)propanoic acid] was 0.1 to 1 µM.
The value for `CCCN1CC(C)(C)CN(Cc2cc(C(CCc3cn(CC)nn3)C(C)(C)C(=O)O)ccc2Cl)CC1=O` (stereo not shown) [Example 15, 3-(4-Chloro-3-((6,6-dimethyl-3-oxo-4-propyl-1,4-diazepan-1-yl)methyl)phenyl)-5-(1-ethyl-1H-1,2,3-triazol-4-yl)-2,2-dimethylpentanoic acid] was 0.01 to 0.1 µM; that for `CCn1cc(CCC(c2ccc(Cl)c(CN3CC(=O)N(C)CC(C)(C)C3)c2)C(C)(C)C(=O)O)nn1` (stereo not shown) [Example 16, 3-(4-Chloro-3-((4,6,6-trimethyl-3-oxo-1,4-diazepan-1-yl)methyl)phenyl)-5-(1-ethyl-1H-1,2,3-triazol-4-yl)-2,2-dimethylpentanoic acid] was under 0.001 µM.
